Results on 3 substances are retold here after patent US9067968B2, “Tight junction protein modulators and uses thereof” (The Regents of the University of Colorado, a body corporate, priority 2007, dated 2015).

In one experiment the test system is occludin. Put plainly: Occludin distribution by immunofluorescence after peptide treatment. In kind it is cell-based, mouse. Conditions: mature EPH4 monolayers, 8 hours at 350 μM. The method, then: To establish the effect of LYHY (SEQ ID NO:1) and DFYNP (SEQ ID NO:2) peptide treatment upon the distribution of endogenous occludin, EPH4 cells were treated with the peptides for 8 hours. The effect of peptides on occludin distribution in mature EPH4 cell monolayers is shown on FIG. 3B, where cell cultures grown on glass slides were treated with LYHY (SEQ ID NO:1), DFYNP (SEQ ID NO:2) or control LYQY (SEQ ID NO:3) peptide for 8 hours at 350 μM. Cells were then stained for occludin. […] Occludin was not as brightly stained at the tight junction in these cells and appeared in intracellular regions outside the tight junction.

For experiment [1], the system named is EPH4 cells. As to the kind of experiment: Calcium switch: recovery of transepithelial resistance. In kind it is cell-based, mouse. Conditions: peptide 350 μM, removed after 24 hours. On the procedure:
To confirm that the LYHY (SEQ ID NO:1) and DFYNP (SEQ ID NO:2) peptides disrupted tight junction properties, a “calcium switch” experiment was performed. The removal of extracellular Ca^+2 and Mg^+2 abolished TER and disrupts intercellular junctions when applied to various epithelia, causing an intracellular redistribution of various cell adhesion proteins, including occludin, away from the apical junction complex. Several epithelial cell lines reorganized the apical junction complex and recovered TER following the replenishment of normal Ca^+2 and Mg^+2 containing medium. The calcium switch was performed on filter-grown EPH4 cells that had achieved a TER of 1000 Ohms·cm^2. After 15 minutes in Ca^+2 and Mg^+2 depleted-medium, TER was reduced to baseline resistance. Cells were then switched back to normal medium containing the occludin peptide, the claudin peptide or the control peptide at a concentration of 350 μM. The control peptide (LYQY (SEQ ID NO:3)) had one amino acid substitution of the occludin peptide and was also circularized with cysteines at each terminus. Peptides were removed after 24 hours. […] TER was measured at 12 and 24 hours following peptide application. Peptides were washed away 24 hours following application and TER was measured every 24 hours thereafter. […]

Experiment [2] concerns EPH4 cells. As to the kind of experiment: TER of intact high resistance monolayers during peptide treatment. In kind it is cell-based, mouse. Conditions: 350 μM, 3 days of peptide treatment, replenished daily. The method, then: (§1) FIGS. 4A and 4B show the effects of the LYHY (SEQ ID NO:1) peptide on TUNEL reactivity and TER. In particular, FIG. 4A is a graph showing the number of TUNEL stained EPH4 and MDCK cells that were grown on glass slides and treated with LYHY (SEQ ID NO:1) or control peptide for 6 or 12 hours. FIG. 4B is a graph of TER that was recorded at 0, 24, […], and 72 hours post peptide treatment of EPH4 cells that were grown on filters until the TER reached 1000 (Ohms·cm^2), then treated with solvent, LYHY (SEQ ID NO:1), or control peptides. Peptides were diluted to 350 μM in normal growth medium and placed in the top and bottom chambers. TER was recorded at 0, 24, 48, and 72 hours post peptide treatment. Peptides were replenished daily, after recordings.
Similarly, treatment of EPH4 cells with a larger occludin mimic peptide caused a change in occludin distribution while treated cells maintained the majority of control TER.

Experiment [3] relates to EPH4 cells. Put plainly: TUNEL staining of peptide-treated EPH4 cells. In kind it is cell-based, mouse. Conditions: for rate of apoptosis: peptide treatment of mature monolayers. On the procedure:
(§2) TUNEL staining was performed using the Roche In Situ Cell Death Detection Kit, TMR red. Cells were fixed in 2% paraformaldehyde and permeabilized in 1% sodium citrate (trisodium salt) containing 0.1% TX-100. Staining was performed as per manufacturers instructions.
(§3) Having established that LYHY (SEQ ID NO:1) and DFYNP (SEQ ID NO:3) peptides impeded recovery of TER following the calcium switch and changed the normal distribution of occludin, the effects of disruption of occludin function on apoptosis was examined. EPH4 mouse mammary epithelial cells and MDCK canine kidney epithelial cells were treated with LYHY (SEQ ID NO:1) peptide for various times and then TUNEL stained.
as §1

The next experiment deals with MDCK cells. Put plainly: TUNEL staining of peptide-treated MDCK cells. The following applies: 6 or 12 hours. In kind it is cell-based, canine. The method, then:
as §2, §3
as §1, with “Peptides were replenished daily, after recordings.” left out

Experiment [4] relates to activated caspase-8 and activated caspase-3. As to the kind of experiment: Activated caspase stains in live peptide-treated cells. In kind it is cell-based, mouse. The following applies: EPH4 cells, 2 h post peptide treatment, 350 μM. On the procedure:
Cells were stained with Image-iT®LIVE Green Caspase-8 Detection Kit, Molecular Probes and/or Image-iT®LIVE Red Caspase-3 and -7 Detection Kit, Molecular Probes. Stains were both diluted into differentiation media that contained LYHY (SEQ ID NO:1) or LYQY (SEQ ID NO:3). Cells were stained in the incubator 1 hour, rinsed in […] differentiation media, and processed for immunofluorescence.
Possible mechanism linking occludin disruption to a known means of initiation of apoptosis was then explored using the LYHY (SEQ ID NO:1) peptide. It is believed that the loss of cellular adhesion results in the activation of the death receptor pathway and specify caspase-8 as the initiator caspase in apoptosis occurring due to loss of either cadherin or integrin function. To observe potential activation of the caspase-8 cascade, live EPH4 cells that had been treated with LYHY (SEQ ID NO:1) or control peptide were stained with cell permeable, fluorescent probes that irreversibly bind the proteolytic sites of activated caspase-8 (carboxyfluoresceine-LETD-fmk) and activated caspase-3 (sulphorhodamine-DEVD-fmk). […] Areas showing caspase-3 activation overlapped with areas showing caspase-8 activation, while caspase-8 activation was more widespread and sometimes occurred alone. […]

Bridges are numbered along the chain shown (N, C = ends). Where no end group is shown, it is not given here.

As for “Cyclic H-CLYQYC-OH (flanking Cys, cyclised; Control Peptide Fig. 3A) [control peptide with one amino acid substitution of the occludin peptide, circularized with cysteines at each terminus]”, in the experiment with occludin, the “distribution of endogenous occludin” value was “Only an occasional cell showing non-tight junctional distribution of occludin”. The “TER reached after the calcium switch” value with EPH4 cells [1] (after about 6 days / several days following peptide removal) amounted to 4000 Ohms·cm^2. Also, the “time to recover initial TER following the calcium switch” value in the experiment with EPH4 cells [1] (initial TER 1000 Ohms·cm^2) is at most 48 h.

In the case of “H-CDFYNPC (disulfide 1-7; not fully specified) [peptide derived from the second extracellular loop of several claudins, cyclized via flanking cysteines]”, in the experiment on occludin, the “distribution of endogenous occludin” value is recorded as “islands of cells with irregular occludin distribution”. Moreover, the “effect on TER of intact monolayers” value in the experiment with EPH4 cells [2] is recorded as “did not significantly reduce TER”. In addition, the rate of apoptosis result in the experiment on EPH4 cells [3] is reported as “increase the rate of apoptosis”.

As to “cyclic H-CLYHYC-OH (flanking Cys, cyclised; TJ Protein Modulator 1) [Occludin second extracellular loop peptide, cyclized via flanking cysteines]”, in the experiment on occludin, the “distribution of endogenous occludin” value was “islands of cells with irregular occludin distribution”. In addition, the TUNEL staining entry in the experiment on MDCK cells is reported as “increased TUNEL staining”; with EPH4 cells [3] (EPH4 cells, 6 or 12 hours) it was “increased TUNEL staining”. For the same substance, in experiment [4], the “staining for activated caspases (caspase-8, caspase-3)” value was “increased staining for activated caspases relative to controls”. The “effect on TER of intact monolayers” value with EPH4 cells [2] is “did not significantly reduce TER”. For the same substance, in the experiment on EPH4 cells [3], the rate of apoptosis entry is “increase the rate of apoptosis”.
